For 20 compounds, EC50 results are on record in patent publication US7906655B2, “Hepatitis C virus inhibitors” (Bristol-Myers Squibb Company, priority 2008, dated 2011).

The first test has as its system HCV 1b genotype. As to the kind of experiment: HCV Replicon assay (HCV-neo replicon cells, wild-type). As to conditions: HCV 1b genotype replicon; class symbols. It is filed as cell-based. As to the method:
An HCV Replicon assay was utilized in the present disclosure, and was prepared, conducted and validated as described in commonly owned PCT/US2006/022197 and in O'Boyle et. al. Antimicrob Agents Chemother. 2005 April; 49 (4):1346-53. Assay methods incorporating luciferase reporters have also been used as described (Apath.com).
HCV-neo replicon cells and replicon cells containing mutations in the NS5A region were used to test the currently described family of compounds. The compounds were determined to have more than 10-fold less inhibitory activity on cells containing mutations than wild-type cells. Thus, the compounds of the present disclosure can be effective in inhibiting the function of the HCV NS5A protein and are understood to be as effective in combinations as previously described in application PCT/US2006/022197 and commonly owned WO/O4014852. Further, the compounds of the present disclosure can be effective against the HCV 1b genotype. It should also be understood that the compounds of the present disclosure can inhibit multiple genotypes of HCV. […] In one embodiment, compounds of the present disclosure are inhibitory versus 1a, 1b, 2a, 2b, 3a, 4a, and 5a genotypes.
For orientation: In antiviral work, replicon cells carry a viral genome segment that copies itself.
In the case of `COC(=O)NC(C(=O)N1[C@@H]2C[C@@H]2C[C@H]1c1nc2cc(Oc3cccc(-c4ccc5[nH]c([C@@H]6C[C@H]7C[C@H]7N6C(=O)C(NC(=O)OC)c6ccccc6)nc5c4)c3)ccc2[nH]1)c1ccccc1` (stereo partly drawn) [Example V5, methyl (2-((1R,3S,5R)-3-(5-(3-((2-((1R,3S,5R)-2-(((methoxycarobnyl)amino)phenyl)acetyl)-2-azabicyclo[3.1.0]hex-3-yl)-1H-benzimidazol-5-yl)oxy)phenyl)-1H-benzimidazol-2-yl)-2-azabicyclo[3.1.0]hex-2-yl)-2-oxo-1-phenylethyl) carbamate], the EC50 was less than 4.57 nM. With `COC(=O)N[C@@H](C)C(=O)N1[C@@H]2C[C@@H]2C[C@H]1c1nc2cc(Oc3cccc(-c4ccc5[nH]c([C@@H]6C[C@H]7C[C@H]7N6C(=O)[C@H](C)NC(=O)OC)nc5c4)c3)ccc2[nH]1` [Example V2, methyl ((1S)-2-((1R,3S,5R)-3-(5-(3-((2-((1R,3S,5R)-2-(N-(methoxycarbonyl)-L-alanyl)-2-azabicyclo[3.1.0]hex-3-yl)-1H-benzimidazol-5-yl)oxy)phenyl)-1H-benzimidazol-2-yl)-2-azabicyclo[3.1.0]hex-2-yl)-1-methyl-2-oxoethyl) carbamate], the 50% effective concentration (EC50) was less than 4.57 nM.

For the compound `O=C(c1cccnc1)N1CCC[C@H]1c1nc2cc(C#Cc3ccc4[nH]c([C@@H]5CCCN5C(=O)c5cccnc5)nc4c3)ccc2[nH]1` [Example M26.1, N,N′-(1,2-ethynediyl)bis(2-((2S)-1-(3-pyridinylcarbonyl)-2-pyrrolidinyl)-1H-benzimidazole)], the half-maximal effective concentration (EC50) is 100 to 999 nM.

The same test, now with this note: Hepatitis C virus, HCV 1b genotype replicon; class symbols.
With `O=C(c1ccccc1NCc1ccccc1)N1CCC[C@H]1c1nc2cc(C#Cc3ccc4[nH]c([C@@H]5CCCN5C(=O)[C@H]5CCCO5)nc4c3)ccc2[nH]1` [Example M54.13, N-benzyl-2-(((2S)-2-(5-((2-((2S)-1-((2R)-tetrahydro-2-furanylcarbonyl)-2-pyrrolidinyl)-1H-benzimidazol-5-yl)ethynyl)-1H-benzimidazol-2-yl)-1-pyrrolidinyl)carbonyl)aniline], the concentration giving a half-maximal response (EC50) lay in the range of 100 to 999 nM. `CC(=O)N1CCC[C@H]1c1nc2ccc(C#Cc3ccc4[nH]c([C@@H]5CCCN5C(=O)c5cccnc5)nc4c3)cc2[nH]1` [Example M54.22, 5-((2-((2S)-1-acetyl-2-pyrrolidinyl)-1H-benzimidazol-6-yl)ethynyl)-2-((2S)-1-(3-pyridinylcarbonyl)-2-pyrrolidinyl)-1H-benzimidazole]: the EC50 fell in the range of 100 to 999 nM.

With `COC(=O)N[C@H](C(=O)N1CCC[C@H]1c1nc2cc(C#Cc3ccc4[nH]c([C@@H]5CCCN5C(=O)[C@@H](NC(=O)OC)C(C)C)nc4c3)ccc2[nH]1)C(C)C` [Example M24, methyl ((1S)-1-(((2S)-2-(5-((2-((2S)-1-((2S)-2-((methoxycarbonyl)amino)-3-methylbutanoyl)-2-pyrrolidinyl)-1H-benzimidazol-5-yl)ethynyl)-1H-benzimidazol-2-yl)-1-pyrrolidinyl)carbonyl)-2-methylpropyl)carbamate], the EC50 is less than 4.57 nM. Consider `CN(C)[C@@H](C(=O)N1CCC[C@H]1c1nc2ccc(C(=O)c3ccc4nc([C@@H]5CCCN5C(=O)[C@@H](c5ccccc5)N(C)C)[nH]c4c3)cc2[nH]1)c1ccccc1` [Example J32, bis(2-((2S)-1-((2R)-2-(dimethylamino)-2-phenylacetyl)-2-pyrrolidinyl)-1H-benzimidazol-5-yl)methanone], for which the EC50 lay in the range of 4.57 to 99 nM. Consider `C[C@@](O)(C(=O)N1CCC[C@H]1c1nc2cc(-c3cnc(-c4ccc5nc([C@@H]6CCCN6C(=O)[C@@](C)(O)c6ccccc6)[nH]c5c4)o3)ccc2[nH]1)c1ccccc1` [Example J18, (2S)-1-((2S)-2-(5-(2-(2-((2S)-1-((2S)-2-hydroxy-2-phenyl-propanoyl)-2-pyrrolidinyl)-1H-benzimidazol-6-yl)-1,3-oxazol-5-yl)-1H-benzimidazol-2-yl)-1-pyrrolidinyl)-1-oxo-2-phenyl-2-propanol], for which the EC50 was less than 4.57 nM. In the case of `CC(=O)NC(C(=O)N1CCC[C@H]1c1nc2cc(-c3cnc(-c4cccc5[nH]c([C@@H]6CCCN6C(=O)C(NC(C)=O)c6ccccc6)nc45)o3)ccc2[nH]1)c1ccccc1` (mixture of isomers) [Example J12.1, N-((1R)-2-((2S)-2-(4-(5-(2-((2S)-1-((2R)-2-acetamido-2-phenylacetyl)-2-pyrrolidinyl)-1H-benzimidazol-5-yl)-1,3-oxazol-2-yl)-1H-benzimidazol-2-yl)-1-pyrrolidinyl)-2-oxo-1-phenylethyl) acetamide], the concentration giving a half-maximal response (EC50) fell in the range of 4.57 to 99 nM. Consider `O=C(CC1CC1)N1CCC[C@H]1c1nc2ccc(C#Cc3ccc4[nH]c([C@@H]5CCCN5C(=O)[C@H]5CCCO5)nc4c3)cc2[nH]1` [Example M52, 5-((2-((2S)-1-(cyclopropylacetyl)-2-pyrrolidinyl)-1H-benzimidazol-6-yl)ethynyl)-2-((2S)-1-((2R)-tetrahydro-2-furanylcarbonyl)-2-pyrrolidinyl)-1H-benzimidazole], for which the EC50 was in the range of 4.57 to 99 nM.

With `O=CN[C@@H](C(=O)N1CCC[C@H]1c1nc2cc(C#Cc3ccc4[nH]c([C@@H]5CCCN5C(=O)[C@H](NC=O)c5ccccc5)nc4c3)ccc2[nH]1)c1ccccc1` [Example M20, N,N′-(1,2-ethynediylbis(1H-benzimidazole-5,2-diyl(2S)-2,1-pyrrolidinediyl((1R)-2-oxo-1-phenyl-2,1-ethanediyl)))diformamide], the EC50 is less than 4.57 nM. The same measure, in the same setting: next, `CC(=O)N1CCC[C@H]1c1nc2ccc(C#Cc3ccc4[nH]c([C@@H]5CCCN5C(=O)N5CCN(C)CC5)nc4c3)cc2[nH]1` [Example M55, 5-((2-((2S)-1-acetyl-2-pyrrolidinyl)-1H-benzimidazol-6-yl)ethynyl)-2-((2S)-1-((4-methyl-1-piperazinyl)carbonyl)-2-pyrrolidinyl)-1H-benzimidazole]: 100 to 999 nM.

On to `CC(=O)N1CCC[C@H]1c1nc2cc(C#Cc3ccc4[nH]c([C@@H]5CCCN5C(=O)[C@@H](c5ccccc5)N(C)C)nc4c3)ccc2[nH]1` [Example M56, (1R)-2-((2S)-2-(5-((2-((2S)-1-acetyl-2-pyrrolidinyl)-1H-benzimidazol-5-yl)ethynyl)-1H-benzimidazol-2-yl)-1-pyrrolidinyl)-N,N-dimethyl-2-oxo-1-phenyl-ethanamine], for which the EC50 was less than 4.57 nM. For the compound `O=C([C@@H](c1ccccc1)N1CCOCC1)N1CCC[C@H]1c1nc2cc(C#Cc3ccc4[nH]c([C@@H]5CCCN5C(=O)[C@@H](c5ccccc5)N5CCOCC5)nc4c3)ccc2[nH]1` [Example M22, 5,5′-(1,2-ethynediyl)bis(2-((2S)-1-((2R)-2-(4-morpholinyl)-2-phenylacetyl)-2-pyrrolidinyl)-1H-benzimidazole)], the EC50 was less than 4.57 nM. Same read-out and setting: the value for `CC(=O)N[C@@H](C(=O)N1CCC[C@H]1c1nc2cc(C#Cc3ccc4nc([C@@H]5CCCN5C(=O)[C@H](NC(C)=O)c5ccccc5)[nH]c4c3)ccc2[nH]1)c1ccccc1` [Example M21, N-((1R)-2-((2S)-2-(5-((2-((2S)-1-((2R)-2-acetamido-2-phenylacetyl)-2-pyrrolidinyl)-1H-benzimidazol-6-yl)ethynyl)-1H-benzimidazol-2-yl)-1-pyrrolidinyl)-2-oxo-1-phenylethyl)acetamide] was less than 4.57 nM. Consider `O=C([C@H](O)c1ccccc1)N1CCC[C@H]1c1nc2cc(-c3cnc(-c4ccc5nc([C@@H]6CCCN6C(=O)[C@H](O)c6ccccc6)[nH]c5c4)o3)ccc2[nH]1` [Example J17, (1R)-2-((2S)-2-(5-(2-(2-((2S)-1-((2R)-2-hydroxy-2-phenylacetyl)-2-pyrrolidinyl)-1H-benzimidazol-6-yl)-1,3-oxazol-5-yl)-1H-benzimidazol-2-yl)-1-pyrrolidinyl)-2-oxo-1-phenylethanol], for which the EC50 is less than 4.57 nM. Regarding `CN(C)[C@@H](C(=O)N1CCC[C@H]1c1nc2cc(-c3cnc(-c4cccc5[nH]c([C@@H]6CCCN6C(=O)[C@@H](c6ccccc6)N(C)C)nc45)o3)ccc2[nH]1)c1ccccc1` [Example J11, (1R)-2-((2S)-2-(4-(5-(2-((2S)-1-((2R)-2-(dimethyl-amino)-2-phenylacetyl)-2-pyrrolidinyl)-1H-benzimidazol-5-yl)-1,3-oxazol-2-yl)-1H-benzimidazol-2-yl)-1-pyrrolidinyl)-N,N-dimethyl-2-oxo-1-phenyl-ethanamine], the EC50 is less than 4.57 nM.

Still in this test, the particulars now being: Hepatitis C virus, HCV 1b genotype replicon; numeric values.
Consider `COc1ccc2ccc(C(=O)N3CCC[C@H]3c3nc4cc(C#Cc5ccc6[nH]c([C@@H]7CCCN7C(=O)c7ccc8ccc(OC)cc8n7)nc6c5)ccc4[nH]3)nc2c1` [Example M17, 2,2′-(1,2-ethynediylbis(1H-benzimidazole-5,2-diyl(2S)-2,1-pyrrolidinediylcarbonyl))bis(7-methoxyquinoline)], for which the EC50 was 20 nM. On to `CC(C)CN[C@H]1C[C@@H](c2nc3cc(C#Cc4ccc5[nH]c([C@@H]6C[C@H](NCC(C)C)CN6C(=O)[C@H]6CCCO6)nc5c4)ccc3[nH]2)N(C(=O)[C@H]2CCCO2)C1` [Example M47.2, (3S,5S,3′S,5′S)-5,5′-(1,2-ethynediylbis(1H-benzimidazole-5,2-diyl))bis(N-isobutyl-1-((2R)-tetrahydro-2-furanylcarbonyl)-3-pyrrolidinamine)], for which the 50% effective concentration (EC50) turned out to be 610 nM. Still for that read-out and setting: next, `O=C(c1ccncc1)N1CCN(C(=O)OCc2ccccc2)C(c2nc3cc(CCc4ccc5nc(C6CN(C(=O)c7ccncc7)CCN6C(=O)OCc6ccccc6)[nH]c5c4)ccc3[nH]2)C1` (centres unmarked) [OL13, benzyl 2-(5-(2-(2-(1-((benzyloxy)carbonyl)-4-isonicotinoyl-2-piperazinyl)-1H-benzimidazol-6-yl)ethyl)-1H-benzimidazol-2-yl)-4-isonicotinoyl-1-piperazinecarboxylate]: 8560 nM.

One may read the EC50 as the concentration at which the effect is half-maximal.
